This note sets out measurements from patent publication US8697696B2, “Triazole compounds II” (Roche Palo Alto LLC, priority 2010, dated 2014).

This test has as its target human GABA A α5β3γ2 receptor (Homo sapiens (Human), UniProt P18507+P31644). Put plainly: [3H]flumazenil competition radioligand binding assay, human GABA A α5β3γ2 receptors in HEK293 cells. The conditions noted are these: HEK293 cells expressing human receptors (transiently transfected); 0.5 nM [3H]flumazenil; means of two determinations; read-out: hKi GABA Aα5. On the procedure: The ability of compounds present invention to bind to GABA A receptor subtypes was determined by competition for [^3H]flumazenil (85 Ci/mmol; Roche) binding to HEK293 cells expressing rat (stably transfected) or human (transiently transfected) receptors of composition α1β2/3γ2, α2β3γ2, α3β3γ2 and α5β3γ2.
Cell pellets were suspended in Krebs-tris buffer (4.8 mM KCl, 1.2 mM CaCl2, 1.2 mM MgCl2, 120 mM NaCl, 15 mM Tris; pH 7.5; binding assay buffer), homogenized by polytron for ca. 20 sec on ice and centrifuged for 60 min at 4° C. (50000 g; Sorvall, rotor: SM24=20000 rpm). The cell pellets were resuspended in Krebs-tris buffer and homogenized by polytron for ca. 15 sec on ice. Protein was measured (Bradford method, Bio-Rad) and aliquots of 1 mL were prepared and stored at −80° C.
Assays were incubated to equilibrium for 1 hour at 4° C. and harvested onto GF/C uni-filters (Packard) by filtration using a Packard harvester and washing with ice-cold wash buffer (50 mM Tris; pH 7.5). After drying, filter-retained radioactivity was detected by liquid scintillation counting.
Ki values were calculated using Excel-Fit (Microsoft) and are the means of two determinations.
Representative test results, obtained by the above described assay measuring binding affinity to HEK293 cells expressing human (h) receptors, are shown in Table 1 below.
As for `Cc1nnn(-c2ccc(F)cc2)c1COc1cc(C(=O)NC2CCOCC2)n(C)n1` [Example 3, 5-[3-(4-Fluoro-phenyl)-5-methyl-3H-[1,2,3]triazol-4-ylmethoxy]-2-methyl-2H-pyrazole-3-carboxylic acid (tetrahydro-pyran-4-yl)-amide], the Ki was 15.7 nM.

Regarding `Cn1nnc(-c2ccc(F)cc2)c1COc1cc(C(=O)NC2CCOCC2)on1` [Example 1, 3-[5-(4-Fluoro-phenyl)-3-methyl-3H-[1,2,3]triazol-4-ylmethoxyl]isoxazole-5-carboxylic acid (tetrahydro-pyran-4-yl)-amide], the Ki stood at 28.8 nM.

Regarding `Cc1nc(/C=C/c2c(-c3ccccn3)nnn2C)sc1C(=O)NC(C)C` [Example 10, 4-Methyl-2-[(E)-2-(3-methyl-5-pyridin-2-yl-3H-[1,2,3]triazol-4-yl)-vinyl]-thiazole-5-carboxylic acid isopropylamide], the Ki stood at 20.7 nM.

In the case of `Cc1nnn(-c2ccc(F)cc2)c1COc1cc(C(=O)NC2(C)COC2)n(C)n1` [Example 5, 5-[3-(4-Fluoro-phenyl)-5-methyl-3H-[1,2,3]triazol-4-ylmethoxy]-2-methyl-2H-pyrazole-3-carboxylic acid (3-methyl-oxetan-3-yl)-amide], the Ki amounted to 43.2 nM.

As to `Cc1nc(/C=C/c2c(-c3ccc(F)cc3)nnn2C)sc1C(=O)NC(C)C` [Example 6, 2-{(E)-2-[5-(4-Fluoro-phenyl)-3-methyl-3H-[1,2,3]triazol-4-yl]vinyl}-4-methyl-thiazole-5-carboxylic acid isopropylamide], the Ki amounted to 11.3 nM.

For `Cn1nc(OCc2c(-c3ccc(F)cc3)nnn2C)cc1C(=O)NC1CCOCC1` [Example 2, 5-[5-(4-Fluoro-phenyl)-3-methyl-3H-[1,2,3]triazol-4-ylmethoxy]-2-methyl-2H-pyrazole-3-carboxylic acid (tetrahydro-pyran-4-yl)-amide], the Ki came to 45.3 nM.

For `Cc1nnn(-c2ccc(F)cc2)c1COc1cc(C(=O)NN2CCOCC2)n(C)n1` [Example 4, 5-[3-(4-Fluoro-phenyl)-5-methyl-3H-[1,2,3]triazol-4-ylmethoxy]-2-methyl-2H-pyrazole-3-carboxylic acid morpholin-4-ylamide], the Ki amounted to 22.2 nM.

Regarding `Cc1nc(/C=C/c2c(C)nnn2-c2ccc(F)cc2)sc1C(=O)NC(C)C` [Example 9, 2-{(E)-2-[3-(4-Fluoro-phenyl)-5-methyl-3H-[1,2,3]triazol-4-yl]-vinyl}-4-methyl-thiazole-5-carboxylic acid isopropylamide], the Ki was found to be 6.8 nM.
